Assay results: US20260092071A1, “COMPOUNDS AND COMPOSITIONS AS SMARCA2/4 DEGRADERS AND USES THEREOF” (REGENTS OF THE UNIVERSITY OF MICHIGAN, priority 2022, published 2026)
Like-named read-outs stand apart in the source and are kept apart here.

What was measured:
SMARCA2 = SMARCA2 (Homo sapiens, UniProt P51531); assay: HiBiT assay for protein degradation, Hela SMARCA2-HiBiT cells (A series); assay type: cell-based; design: Hela cells were genetically modified via CRISPR/Cas9 to fuse HiBiT to the carboxy terminus of SMARCA2; host or cells: HeLa (CRISPR/Cas9 HiBiT knock-in); conditions: for Dmax: read-out: SMARC A2 Hela HiBit Dmax (%); for DC50: read-out: SMARC A2 Hela HiBit DC50;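 on SMARC A2 Hela HiBit Dmax (%): 24 h compound treatment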
In short: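 HeLa cells engineered by CRISPR/Cas9 to carry a HiBiT tag fused to the C-terminus of SMARCA2 (Promega CS302365) were grown in DMEM supplemented with FBS and penicillin-streptomycin. After treatment, remaining SMARCA2 protein was quantified with the Nano-Glo® HiBiT Lytic Detection Assay (Promega N3050), and curves were fitted in GraphPad Prism.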

SMARCA4 = SMARCA4 (Homo sapiens, UniProt P51532); assay: HiBiT assay for protein degradation, Hela SMARCA4-HiBiT cells (A series); assay type: cell-based; design: fuse HiBiT to the carboxy terminus of SMARCA2 (Promega CS302365) or SMARCA4 (Promega CS3023225); host or cells: HeLa (CRISPR/Cas9 HiBiT knock-in); conditions: for DC50: read-out: SMARC A4 Hela HiBit DC50
In short: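 HeLa cells engineered by CRISPR/Cas9 to carry a HiBiT tag fused to the C-terminus of SMARCA4 (Promega CS3023225) were grown in DMEM supplemented with FBS and penicillin-streptomycin. After compound exposure, remaining SMARCA4 protein was quantified using the Nano-Glo® HiBiT Lytic Detection Assay (Promega N3050), and curves were fitted in GraphPad Prism.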

[1] = Hela SMARCA2-HiBiT cells, 24 hours treatment
[2] = Hela SMARCA4-HiBiT cells, 24 hours treatment
[3] = Hela SMARCA4-HiBiT cells, 24 hours treatment, read-out: SMARC A4 Hela HiBit Dmax(%)
[4] = Hela SMARCA4-HiBiT cells, 24 hours treatment, read-out: SMARC A4 Hela HiBit Dmax

Sequence of SMARCA2 (P51531 whole entry, the tested form may be a part): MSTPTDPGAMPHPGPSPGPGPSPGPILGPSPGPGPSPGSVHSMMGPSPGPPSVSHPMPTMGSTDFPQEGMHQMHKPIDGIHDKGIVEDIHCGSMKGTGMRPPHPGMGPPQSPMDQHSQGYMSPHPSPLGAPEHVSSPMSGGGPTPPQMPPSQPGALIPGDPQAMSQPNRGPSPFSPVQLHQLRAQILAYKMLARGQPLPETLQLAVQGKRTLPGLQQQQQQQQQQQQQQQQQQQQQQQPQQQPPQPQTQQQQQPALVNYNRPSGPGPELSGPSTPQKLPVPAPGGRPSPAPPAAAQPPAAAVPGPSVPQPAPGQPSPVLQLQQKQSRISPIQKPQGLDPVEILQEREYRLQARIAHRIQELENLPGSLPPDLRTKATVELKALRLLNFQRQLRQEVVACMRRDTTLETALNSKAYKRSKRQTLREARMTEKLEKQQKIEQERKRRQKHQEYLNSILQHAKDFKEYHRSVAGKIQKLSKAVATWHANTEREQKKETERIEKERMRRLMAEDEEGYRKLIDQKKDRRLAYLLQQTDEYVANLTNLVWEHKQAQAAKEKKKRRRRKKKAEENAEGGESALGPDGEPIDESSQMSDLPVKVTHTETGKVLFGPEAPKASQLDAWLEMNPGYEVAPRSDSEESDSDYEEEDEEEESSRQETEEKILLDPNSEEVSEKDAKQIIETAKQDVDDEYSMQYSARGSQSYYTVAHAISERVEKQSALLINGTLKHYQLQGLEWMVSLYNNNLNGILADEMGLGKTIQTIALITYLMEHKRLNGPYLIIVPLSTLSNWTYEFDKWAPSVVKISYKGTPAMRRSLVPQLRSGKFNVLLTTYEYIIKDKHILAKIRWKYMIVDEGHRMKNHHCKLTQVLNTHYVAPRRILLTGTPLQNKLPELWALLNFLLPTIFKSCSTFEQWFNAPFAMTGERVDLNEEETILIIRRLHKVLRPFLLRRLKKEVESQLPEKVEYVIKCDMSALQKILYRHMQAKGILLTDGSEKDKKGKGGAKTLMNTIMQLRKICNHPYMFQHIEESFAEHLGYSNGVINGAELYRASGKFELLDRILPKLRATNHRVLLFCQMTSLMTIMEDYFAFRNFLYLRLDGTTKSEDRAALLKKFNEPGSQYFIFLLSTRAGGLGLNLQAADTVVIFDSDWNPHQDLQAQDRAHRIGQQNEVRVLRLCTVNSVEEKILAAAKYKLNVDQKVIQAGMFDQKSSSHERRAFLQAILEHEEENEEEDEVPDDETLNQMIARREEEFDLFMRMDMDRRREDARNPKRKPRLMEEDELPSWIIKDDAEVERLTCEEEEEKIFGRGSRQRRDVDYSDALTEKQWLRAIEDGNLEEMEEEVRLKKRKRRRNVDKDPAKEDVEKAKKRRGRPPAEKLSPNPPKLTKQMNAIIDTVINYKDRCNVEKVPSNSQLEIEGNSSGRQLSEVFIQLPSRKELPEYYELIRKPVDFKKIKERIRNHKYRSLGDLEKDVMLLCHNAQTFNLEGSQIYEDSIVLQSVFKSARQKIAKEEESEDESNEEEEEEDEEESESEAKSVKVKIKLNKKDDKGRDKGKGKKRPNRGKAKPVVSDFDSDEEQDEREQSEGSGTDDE
Sequence of SMARCA4 (P51532 whole entry, the tested form may be a part): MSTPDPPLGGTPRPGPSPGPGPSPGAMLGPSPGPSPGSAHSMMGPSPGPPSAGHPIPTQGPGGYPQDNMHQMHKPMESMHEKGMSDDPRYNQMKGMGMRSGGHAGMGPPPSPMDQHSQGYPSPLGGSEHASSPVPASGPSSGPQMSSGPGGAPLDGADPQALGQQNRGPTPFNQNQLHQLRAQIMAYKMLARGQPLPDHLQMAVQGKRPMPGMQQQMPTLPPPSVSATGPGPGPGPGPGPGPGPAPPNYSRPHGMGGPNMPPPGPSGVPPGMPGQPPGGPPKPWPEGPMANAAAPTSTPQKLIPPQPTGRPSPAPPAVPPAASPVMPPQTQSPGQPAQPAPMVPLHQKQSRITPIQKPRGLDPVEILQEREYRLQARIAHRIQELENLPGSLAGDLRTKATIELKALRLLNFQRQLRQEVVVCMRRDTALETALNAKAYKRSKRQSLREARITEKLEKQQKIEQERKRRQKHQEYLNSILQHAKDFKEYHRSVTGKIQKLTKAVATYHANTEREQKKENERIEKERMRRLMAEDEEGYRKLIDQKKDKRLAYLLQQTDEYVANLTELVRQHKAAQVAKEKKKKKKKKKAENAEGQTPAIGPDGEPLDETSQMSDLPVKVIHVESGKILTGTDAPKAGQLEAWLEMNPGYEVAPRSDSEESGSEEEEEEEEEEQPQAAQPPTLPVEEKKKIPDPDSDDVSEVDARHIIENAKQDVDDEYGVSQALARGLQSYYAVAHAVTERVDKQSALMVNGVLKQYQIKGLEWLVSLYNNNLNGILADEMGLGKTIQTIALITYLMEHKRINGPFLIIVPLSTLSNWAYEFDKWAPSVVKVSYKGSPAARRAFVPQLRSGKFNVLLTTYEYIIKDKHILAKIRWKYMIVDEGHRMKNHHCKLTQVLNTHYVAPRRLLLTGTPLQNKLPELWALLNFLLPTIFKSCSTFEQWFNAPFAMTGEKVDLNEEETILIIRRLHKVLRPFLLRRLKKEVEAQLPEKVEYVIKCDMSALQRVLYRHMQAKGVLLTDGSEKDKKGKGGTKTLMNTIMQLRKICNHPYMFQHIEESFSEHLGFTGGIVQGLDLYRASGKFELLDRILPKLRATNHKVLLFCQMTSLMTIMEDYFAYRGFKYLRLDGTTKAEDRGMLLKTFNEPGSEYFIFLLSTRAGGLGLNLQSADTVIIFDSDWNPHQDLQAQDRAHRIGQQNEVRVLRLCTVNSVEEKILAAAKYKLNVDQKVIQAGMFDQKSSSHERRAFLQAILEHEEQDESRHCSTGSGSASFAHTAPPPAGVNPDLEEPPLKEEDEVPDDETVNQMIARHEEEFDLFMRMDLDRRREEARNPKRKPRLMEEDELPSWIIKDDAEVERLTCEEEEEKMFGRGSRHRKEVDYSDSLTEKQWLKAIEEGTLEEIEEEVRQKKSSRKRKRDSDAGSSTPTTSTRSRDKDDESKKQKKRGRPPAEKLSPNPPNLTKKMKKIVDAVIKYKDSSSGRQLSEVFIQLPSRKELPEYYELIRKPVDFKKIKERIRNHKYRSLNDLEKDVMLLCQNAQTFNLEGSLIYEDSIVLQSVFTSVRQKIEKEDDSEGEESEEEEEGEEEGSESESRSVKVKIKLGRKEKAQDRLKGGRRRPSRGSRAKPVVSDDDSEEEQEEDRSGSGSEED

SMILES | DC50 (SMARCA2; [1]) | DC50 (SMARCA4; [2]) | DC50 (SMARCA2) | DC50 (SMARCA4) | Dmax (SMARCA2; [1]) | Dmax (SMARCA4; [4]) | also measured
Cc1ncsc1-c1ccc([C@H](C)NC(=O)[C@@H]2C[C@@H](O)CN2C(=O)[C@@H](NC(=O)CCCCN2CCC(c3ccc4c(c3)C3(CCCCC3)c3nc(=O)c5c(Cl)cccc5n3-4)CC2)C(C)(C)C)cc1 [Compound A8, (2S,4R)-1-((S)-2-(5-(4-(4′-chloro-5′-oxo-5′H-spiro[cyclohexane-1,7′-indolo[1,2-a]quinazolin]-9′-yl)piperidin-1-yl)pentanamido)-3,3-dimethylbutanoyl)-4-hydroxy-N—((S)-1-(4-(4-methylthiazol-5-yl)phenyl)ethyl) pyrrolidine-2-carboxamide] | 100 to 500 nM | > 1000 nM |  |  |  |  | Dmax (SMARCA2; HeLa): 70 to 90%; Dmax (SMARCA4; HeLa, read-out: SMARC A4 Hela HiBit Dmax(%)): < 50%
Cc1ncsc1-c1ccc([C@H](CN2CCOCC2)NC(=O)[C@@H]2C[C@@H](O)CN2C(=O)[C@@H](NC(=O)C23CCC(CN4CCC(c5ccc6c(c5)C5(CCCCC5)c5nc(=O)c7c(Br)cccc7n5-6)CC4)(CC2)CC3)C(C)(C)C)cc1 [Compound A28, (2S,4R)-1-((S)-2-(4-((4-(4′-bromo-5′-oxo-5′H-spiro[cyclohexane-1,7′-indolo[1,2-a]quinazolin]-9′-yl)piperidin-1-yl)methyl)bicyclo[2.2.2]octane-1-carboxamido)-3,3-dimethylbutanoyl)-4-hydroxy-N—((R)-1-(4-(4-methylthiazol-5-yl)phenyl)-2-morpholinoethyl)pyrrolidine-2-carboxamide] |  |  | < 100 nM | 100 to 500 nM |  |  | SMARC A2 Hela HiBit Dmax (%) (SMARCA2; [1]): B (B (70-90% degradation)); SMARC A4 Hela HiBit Dmax(%) (SMARCA4; [2]): C (C (50-69% degradation))
Cc1ncsc1-c1ccc([C@H](CN2CC(C)(O)C2)NC(=O)[C@@H]2C[C@@H](O)CN2C(=O)[C@@H](n2cc([C@H]3CC[C@H](CN4CCC(c5ccc6c(c5)-n5c(nc(=O)c7c(Cl)cccc75)C65CCCCC5)CC4)CC3)nn2)C(C)(C)C)cc1 [Compound A71, (2S,4R)-1-((S)-2-(4-((1r,4S)-4-((4-(4′-chloro-5′-oxo-5′H-spiro[cyclohexane-1,7′-indolo[1,2-a]quinazolin]-10′-yl)piperidin-1-yl)methyl)cyclohexyl)-1H-1,2,3-triazol-1-yl)-3,3-dimethylbutanoyl)-4-hydroxy-N—((R)-2-(3-hydroxy-3-methylazetidin-1-yl)-1-(4-(4-methylthiazol-5-yl)phenyl)ethyl)pyrrolidine-2-carboxamide] | < 100 nM | > 1000 nM |  |  | > 90% |  | Dmax (SMARCA4; [3]): 50 to 69%
Cc1ncsc1-c1ccc([C@H](CN2CCOCC2)NC(=O)[C@@H]2C[C@@H](O)CN2C(=O)[C@H](C2CCCCC2)n2cc([C@H]3CC[C@H](CN4CCC(c5ccc6c(c5)-n5c(nc(=O)c7c(Cl)cccc75)C65CCCCC5)CC4)CC3)nn2)cc1 [Compound A122, (2S,4R)-1-((S)-2-(4-((1r,4S)-4-((4-(4′-chloro-5′-oxo-5′H-spiro[cyclohexane-1,7′-indolo[1,2-a]quinazolin]-10′-yl)piperidin-1-yl)methyl)cyclohexyl)-1H-1,2,3-triazol-1-yl)-2-cyclohexylacetyl)-4-hydroxy-N—((R)-1-(4-(4-methylthiazol-5-yl)phenyl)-2-morpholinoethyl)pyrrolidine-2-carboxamide] | < 10 nM |  |  |  | > 90% | 50 to 69% | SMARC A4 Hela HiBit DC50(nM) (SMARCA4; [2]): No fit
Cc1ncsc1-c1ccc([C@H](Cn2cc(CN3CCC(c4ccc5c(c4)-n4c(nc(=O)c6c(Br)cccc64)C54CCCCC4)CC3)nn2)NC(=O)[C@@H]2C[C@@H](O)CN2C(=O)[C@@H](n2cc(C3CC3)nn2)C(C)(C)C)cc1 [Compound A114, (2S,4R)—N—((R)-2-(4-((4-(4′-bromo-5′-oxo-5′H-spiro[cyclohexane-1,7′-indolo[1,2-a]quinazolin]-10′-yl)piperidin-1-yl)methyl)-1H-1,2,3-triazol-1-yl)-1-(4-(4-methylthiazol-5-yl)phenyl)ethyl)-1-((S)-2-(4-cyclopropyl-1H-1,2,3-triazol-1-yl)-3,3-dimethylbutanoyl)-4-hydroxypyrrolidine-2-carboxamide] | 10 to 100 nM | 100 to 1000 nM |  |  | 70 to 90% | 70 to 90% | 
Cc1ncsc1-c1ccc([C@H](COCC(=O)O)NC(=O)[C@@H]2C[C@@H](O)CN2C(=O)[C@@H](n2cc([C@H]3CC[C@H](CN4CCC(c5ccc6c(c5)-n5c(nc(=O)c7c(Cl)cccc75)C65CCCCC5)CC4)CC3)nn2)C(C)(C)C)cc1 [Compound A155, 2-((R)-2-((2S,4R)-1-((S)-2-(4-((1r,4S)-4-((4-(4′-chloro-5′-oxo-5′H-spiro[cyclohexane-1,7′-indolo[1,2-a]quinazolin]-10′-yl)piperidin-1-yl)methyl)cyclohexyl)-1H-1,2,3-triazol-1-yl)-3,3-dimethylbutanoyl)-4-hydroxypyrrolidine-2-carboxamido)-2-(4-(4-methylthiazol-5-yl)phenyl)ethoxy) acetic acid] | 100 to 1000 nM | > 1000 nM |  |  | 70 to 90% | < 50% | 
Cc1ncsc1-c1ccc([C@H](C)NC(=O)[C@@H]2C[C@@H](O)CN2C(=O)[C@@H](n2cc(-c3ccc(CN4CCC(c5ccc6c(c5)-n5c(nc(=O)c7c(Br)cccc75)C65CCCCC5)CC4)nc3)nn2)C(C)(C)C)cc1 [Compound A66] |  |  | > 1000 nM | > 1000 nM |  |  | SMARC A2 Hela HiBit Dmax (%) (SMARCA2; [1]): C (C (50-69% degradation)); SMARC A4 Hela HiBit Dmax(%) (SMARCA4; [2]): D (D (<50% degradation))
Cc1ncsc1-c1ccc([C@H](C)NC(=O)[C@@H]2C[C@@H](O)CN2C(=O)[C@@H](NC(=O)C23CCC(CN4CCC(c5ccc6c(c5)-n5c(nc(=O)c7c(Br)cccc75)C65CCCCC5)CC4)(CC2)C3)C(C)(C)C)cc1 [Compound A23, (2S,4R)-1-((S)-2-(4-((4-(4′-bromo-5′-oxo-5′H-spiro[cyclohexane-1,7′-indolo[1,2-a]quinazolin]-10′-yl)piperidin-1-yl)methyl)bicyclo[2.2.1]heptane-1-carboxamido)-3,3-dimethylbutanoyl)-4-hydroxy-N—((S)-1-(4-(4-methylthiazol-5-yl)phenyl)ethyl)pyrrolidine-2-carboxamide] |  |  | < 100 nM | 100 to 500 nM |  |  | Dmax (SMARCA2; HeLa): > 90%; Dmax (SMARCA4; [3]): 70 to 90%
Cc1ncsc1-c1ccc([C@H](C)NC(=O)[C@@H]2C[C@@H](O)CN2C(=O)[C@H](C2CCN(C(=O)CN3CCC(c4ccc5c(c4)-n4c(nc(=O)c6c(Cl)cccc64)C54CCCCC4)CC3)CC2)n2cc(C3CC3)nn2)cc1 [Compound A105, (2S,4R)-1-((S)-2-(1-(2-(4-(4′-chloro-5′-oxo-5′H-spiro[cyclohexane-1,7′-indolo[1,2-a]quinazolin]-10′-yl)piperidin-1-yl)acetyl)piperidin-4-yl)-2-(4-cyclopropyl-1H-1,2,3-triazol-1-yl)acetyl)-4-hydroxy-N—((S)-1-(4-(4-methylthiazol-5-yl)phenyl)ethyl)pyrrolidine-2-carboxamide] | 100 to 1000 nM | > 1000 nM |  |  | 50 to 69% | < 50% | 
